The results in this text go back to article PMC11846289, “New tetrahydroisoquinolines bearing nitrophenyl group targeting HSP90 and RET enzymes: synthesis, characterization and biological evaluation” (BMC Chemistry, 2025).

≈ marks a conversion by molar mass, not a printed value. Where only a bound is given, the exact number is not on record here.

The subject of assay [1] is MG-63 (human osteosarcoma). In words: one spot 100 µg/ml cytotoxicity, MG-63. The class given is cell-based. Particulars: Homo sapiens, MG-63, percent inhibition, read-out: one spot concentration inhibition, MG-63.
The subject of assay [2] is HCT116 (colon carcinoma human). In words: one spot 100 µg/ml cytotoxicity, HCT116. Type of assay: cell-based. Particulars: Homo sapiens, HCT-116, percent inhibition, read-out: one spot concentration inhibition, HCT116.
The subject of assay [3] is CACO2 (colon carcinoma human). As to the kind of experiment: one spot 100 µg/ml cytotoxicity, CACO2. The class given is cell-based. The conditions noted are these: Homo sapiens, Caco-2, percent inhibition, read-out: one spot concentration inhibition, CACO2.
The test system of assay [4] is A549 (human lung carcinoma). As to the kind of experiment: one spot 100 µg/ml cytotoxicity, A549. Type of assay: cell-based. The conditions noted are these: Homo sapiens, A549, percent inhibition, read-out: one spot concentration inhibition, A549.
Assay [5] deals with H460 (human lung carcinoma). As to the kind of experiment: one spot 100 µg/ml cytotoxicity, H460. Type of assay: cell-based. Particulars: Homo sapiens, NCI-H460, percent inhibition, read-out: one spot concentration inhibition, H460.
In assay [6] the test system is HUH7 (human liver carcinoma). In words: one spot 100 µg/ml cytotoxicity, HUH7. The class given is cell-based. Particulars: Homo sapiens, Huh-7, percent inhibition, read-out: one spot concentration inhibition, HUH7.
For assay [7], the system named is HEPG2 (human liver carcinoma). As to the kind of experiment: one spot 100 µg/ml cytotoxicity, HEPG2. Type of assay: cell-based. Particulars: Homo sapiens, HepG2, percent inhibition, read-out: one spot concentration inhibition, HEPG2.
Assay [8] concerns MCF7 (human breast carcinoma). As to the kind of experiment: one spot 100 µg/ml cytotoxicity, MCF7. Type of assay: cell-based. Particulars: Homo sapiens, MCF7, percent inhibition, read-out: one spot concentration inhibition, MCF7.
The subject of assay [9] is normal human skin cell line (HSF). In words: one spot 100 µg/ml cytotoxicity, normal skin cell line HSF. The conditions noted are these: Homo sapiens; for cytotoxicity at 100 µg/mL: HSF, one spot 100 µg/ml, read-out: Inhibition percent of HSF cell line; for inhibition at 100 µg/mL: supplement Table S1, read-out: one spot concentration inhibition, HSF. Type of assay: cell-based.

The test system of another assay is HSF. As to the kind of experiment: IC50 against normal cell line HSF. The class given is cell-based, human. Particulars: Homo sapiens; normal skin cell line HSF; read-out: IC50 FOR HSF ± S.D.
In the next assay the test system is MCF7 cell line. In words: MTT in vitro cytotoxicity, MCF7. Type of assay: cell-based, human. The conditions noted are these: for Selectivity Index = IC50 of HSF/ IC50 of MCF7: HSF vs MCF7; for IC50: Homo sapiens, MTT, MCF7, read-out: IC50 for MCF7 ± S.D. Here is the method: (§1) Using the MTT test method, the in vitro cytotoxicity of our synthesized compounds at different doses ranging from […] was examined in two cell lines, HEPG2 and MCF7, to examine 50% of the cancer cells dying.
(§2) Some of the synthesized compounds were tested as anticancer activity for the IC50 against two cell lines HEPG2 and MCF7 cells according to method. All cell lines were obtained from national cancer institute, Cairo—Egypt.

In a further assay the test system is HEPG2 cell line. In words: MTT in vitro cytotoxicity, HEPG2. Type of assay: cell-based, human. Particulars: for Selectivity Index = IC50 of HSF/IC50 of HEPG2: HSF vs HEPG2; for IC50: Homo sapiens, MTT, HEPG2, read-out: IC50 for HEPG2 ± S.D. Here is the method: as §1, §2

For the molecule `CC(=O)C1C(c2cccc([N+](=O)[O-])c2)c2c(C)[nH]c(=S)c(C#N)c2CC1(C)O` (stereo not shown) [Compound 2a, 7-Acetyl-4-cyano-1,6-dimethyl-6-hydroxy-8-(3-nitrophenyl)−5,6,7,8-tetra-hydroisoquinoline-3(2H)-thione], the inhibition at 100 µg/mL was 41.9% in assay [1]; 62.3% in assay [2]; 55.1% in assay [3]; 42.4% in assay [4]; 55.3% in [5]; 27.4% in assay [6]. Moreover, the inhibition at 100 µg/mL was 61.3% in [7], 74% in [8] and 46.2% in assay [9]. The cytotoxicity at 100 µg/mL in assay [9] was found to be 48%. Besides, the IC50 (commonly the concentration needed to halve the response being measured) in the assay with HSF is 100 µg/mL (≈ 252 µM); in the assay on MCF7 cell line it was 35 ± 0.061 µg/mL (≈ 88.1 µM); in the assay with HEPG2 cell line, 82 ± 0.054 µg/mL (≈ 206 µM). The “Selectivity Index = IC50 of HSF/ IC50 of MCF7” value in the assay on MCF7 cell line is above 2; with MCF7 cell line (listed as 2A), 2.8. The “Selectivity Index = IC50 of HSF/IC50 of HEPG2” value in the assay on HEPG2 cell line came out at 1.2.
With `CCOC(=O)CSc1nc(C)c2c(c1C#N)CC(C)(O)C(C(C)=O)C2c1cccc([N+](=O)[O-])c1` (stereo not shown) [Compound 4, Ethyl 2-[(7-acetyl-4-cyano-1,6-dimethyl-6-hydroxy-8-(3-nitrophenyl)−5,6,7,8-tetra-hydroisoquinolin-3-yl)thio]acetate], the inhibition at 100 µg/mL in assay [1] was 53.8%; in assay [2], 56.8%; in [3], 64.4%; in assay [4] it was 47.2%; in [5], 66.8%; in [6] it was 27.5%. Besides, the figures for the inhibition at 100 µg/mL in assay [7], in assay [8] and in assay [9] were 62.1%, 76.3% and 49.4%, respectively. In addition, in [9], the cytotoxicity at 100 µg/mL was determined as 50%. The IC50 stood at 100 µg/mL (≈ 207 µM) with HSF, 47 ± 0.055 µg/mL (≈ 97.2 µM) with MCF7 cell line and 80 ± 0.07 µg/mL (≈ 165 µM) with HEPG2 cell line. Further, the “Selectivity Index = IC50 of HSF/ IC50 of MCF7” value with MCF7 cell line was found to be 2.1. The “Selectivity Index = IC50 of HSF/IC50 of HEPG2” value in the assay with HEPG2 cell line was 1.2.
`CC(=O)C1C(c2ccc([N+](=O)[O-])cc2)c2c(C)nc(SCC#N)c(C#N)c2CC1(C)O` (stereo not shown) [Compound 5, 2-[(7-Acetyl-4-cyano-1,6-dimethyl-6-hydroxy-8-(4-nitrophenyl)−5,6,7,8-tetra-hydroisoquinolin-3-yl)thio]acetoonitriile]: the inhibition at 100 µg/mL in assay [1] was 55.7%; in [2], 58.9%; in assay [3], 61.5%; in assay [4], 55.2%; in assay [5], 66.6%; in [6] it was 35.5%. Moreover, the inhibition at 100 µg/mL in assay [7] stood at 68.2%; in assay [8] it was 67.6%; in assay [9] it was 66.8%. Also, the cytotoxicity at 100 µg/mL in assay [9] amounted to 70%. The IC50 turned out to be 71 µg/mL (≈ 163 µM) in the assay with HSF, 33 ± 0.042 µg/mL (≈ 75.6 µM) with MCF7 cell line and 97 ± 0.053 µg/mL (≈ 222 µM) with HEPG2 cell line. In addition, the “Selectivity Index = IC50 of HSF/ IC50 of MCF7” value in the assay on MCF7 cell line was found to be 2.1. Further, the “Selectivity Index = IC50 of HSF/IC50 of HEPG2” value in the assay on HEPG2 cell line is on record as 0.73.
Consider `CC(=O)c1ccc(NC(=O)CSc2nc(C)c3c(c2C#N)CC(C)(O)C(C(C)=O)C3c2cccc([N+](=O)[O-])c2)cc1` (stereo not shown) [Compound 6a, 2-[(7-Acetyl-4-cyano-1,6-dimethyl-6-hydroxy-8-(3-nitrophenyl)−5,6,7,8-tetra-hydroisoquinolin-3-yl)thio]-N-(4-acetylphenyl)acetamide], for which the inhibition at 100 µg/mL in [1] was 45.8%; in [2], 58.1%; in assay [3], 54.8%; in [4], 20.3%; in [5], 63.5%; in assay [6], 38.6%. Moreover, the values for the inhibition at 100 µg/mL in assay [7], in [8] and in assay [9] were 59.5%, 66.4% and 53.5%, respectively. Further, the cytotoxicity at 100 µg/mL in assay [9] worked out at 56%. Further, the concentration for half-maximal inhibition (IC50) in the assay with HSF was 89 µg/mL (≈ 155 µM); in the assay on MCF7 cell line it was 21 ± 0.057 µg/mL (≈ 36.7 µM); with HEPG2 cell line it was above 100 µg/mL. The “Selectivity Index = IC50 of HSF/ IC50 of MCF7” value with MCF7 cell line is above 2; in the assay with MCF7 cell line (listed as 6A) it was 4.2.
